Test results reported in US11154515B2, “Pharmaceutical compositions comprising cannabidiol and beta-caryophyllene and methods for their use” (priority 2017, dated 2021).
Where “and” joins values, the source holds several entries; their conditions need not be identical. Equal values may be shown once.

Key:
[1] = tested on: IL-1α gene expression; assay: IL-1α gene expression (RT-qPCR) in LPS-stimulated RAW 264.7 macrophages; type: cell-based, murine; settings: for reduction of LPS-induced expression of IL-1α vs untreated, LPS-stimulated controls (FIG. 3A): CBD 0.1 μM, BCP 0.013 μM (p<0.001), combination 0.1 μM + 0.013 μM (7.7:1, p<0.001); for % decrease in IL1α expression: Table 3A experiment; for % Inhibition Alone, IL-1α gene expression: Table 3B/6 experiment
Protocol: (§1) RAW 264.7 cells were cultured in Dulbecco's Modified Eagle's Medium (high glucose DMEM, Sigma-Aldrich) supplemented with 10% fetal bovine serum (FBS), 1% L-glutamine, 1% Sodium-pyruvate, 1% Penicillin-Streptomycin (culture medium). The cells were maintained in T75 flasks at 37° C. in humidified air containing 5% CO2 in an incubator and passaged every second-third day.
(§2) For drug treatment and LPS stimulation, 200,000 cells/well were seeded in 1.5 mL culture medium in a 6-well plate and incubated to allow attachment to the cell culture plate. After attachment, cells were incubated with various concentrations of CBD (0.1 μM, 0.3 μM, 1 μM, 3 μM, 5 μM, 10 μM, and 30 μM) or BCP (0.001 μM, 0.01 μM, 0.013 μM, 0.1 μM, 0.3 μM, 1 μM, 3 μM, 5 μM, 10 μM, and 100 μM), or vehicle (control) for 2 hrs. After the 2 h incubation, 0.1 μg/mL LPS was added to each well to induce inflammation and cells were incubated with LPS for 24 hrs.
(§3) After the 24 h incubation with LPS, the cells were harvested and gene expression of the pro-inflammatory cytokines interleukin (IL)-1α, IL-1β were measured by quantitative real-time polymerase chain reaction (RT-qPCR) on a Roche Light Cycler 480 QPCR System (Roche Applied Sciences) using the 5′ nuclease assay. Total RNA was isolated using TRIzol (LifeTechnologies), DNase treatment was performed according to the manufacturer's protocol, and then 1 μg of total RNA was reverse-transcribed into cDNA using High Capacity cDNA Kit from Life Technologies Corporation. PCR amplification was performed using the TaqMan primers and probes (assay IDs: Mm00439620_m1 for murine Il1a; Mm00434228_m1 for murine Il1b, Mm00446190_m1 for murine 116, Mm00441263_m1 for murine Cxcl15/Il8). Expression of the housekeeping gene, Gapdh, was used (assay ID: […]) as an internal control. The amount of the transcripts was normalized to those of the housekeeping gene using the ΔCT method. Results are expressed as % decrease in the expression levels of IL1α and IL1β in drug-treated, LPS-stimulated groups compared to the expression of each cytokine gene in the vehicle-treated, LPS-stimulated group (regarded as 100%). All experiments were repeated 2-3 times.
(§4) For statistical analysis, data were analyzed and graphs were plotted using Origin Pro Plus 6.0 software (Microcal, Northampton, Mass., USA) and Student's two-tailed two samples t-test. p<0.05 values were regarded as significant differences.

[2] = tested on: male NMRI mice, carrageenan-induced paw edema; assay: Carrageenan-induced paw edema, plethysmometry; type: in vivo, mouse; settings: for basal paw volume vs vehicle-treated mice: single doses i.p. (CBD 0.5, 1, 10, 30 mg/kg; BCP 1, 5, 10, 30 mg/kg), 30 min after administration
Protocol: CBD and BCP solutions (≥80%, FCC, FG) were dissolved in a solution containing 10% Tween 80 and 90% saline (vehicle) and were freshly prepared immediately before use. Mice were treated with drug solutions or vehicle control by intraperitoneal (i.p.) injection at a volume of 0.1 mL/10 g body weight. Acute paw injury was induced by intraplantar injection of 20 μL 3% carrageenan (dissolved in 0.9% NaCl, Sigma Aldrich, St. Louis, Mo., USA) into the right hind paw.
Experiments were performed on 7-16-week-old male NMRI mice (30-50 g) provided with standard chow and water ad libitum. Mice were divided into groups and treated with a single dose of vehicle control (VEH), CBD, BCP, or CBD+BCP delivered i.p. 30 minutes after drug administration, measurements were taken to determine baseline values for mechanonociceptive thresholds and paw volumes. 35 minutes after drug administration, 20 μL of 3% carrageenan was injected intraplantarly (i.pl.) in the right hind paws. 3 hours after carrageenan administration, additional measurements were taken to determine the mechanonociceptive thresholds and paw volumes of the ipsilateral and contralateral paws.
Baseline and post-carrageenan injection paw volume was determined by plethysmometry (Ugo Basile Plethysmometer 7140, Comerio, Italy) and expressed in cubic centimeter (cm^3). Paw edema was presented as percentage increase of baseline values obtained prior to carrageenan administration (Bolcskei K. et al., Pain. 2005; 117:368-76).

[3] = tested on: IL-1β gene expression; assay: IL-1β gene expression (RT-qPCR) in LPS-stimulated RAW 264.7 macrophages; type: cell-based, murine; settings: for reduction of LPS-induced expression of IL-1β vs untreated, LPS-stimulated controls (FIG. 3B): CBD 0.1 μM, BCP 0.013 μM (p<0.01), combination 0.1 μM + 0.013 μM (7.7:1, p<0.001)
Protocol: as §1, §2, §3, §4

[4] = Table 4 Exp. 1: CBD 0.1 μM, BCP 0.013 μM, CBD + BCP 0.1 μM + 0.013 μM
[5] = Table 4 Exp. 2: CBD 1 μM, BCP 0.13 μM, CBD + BCP 1 μM + 0.13 μM
[6] = most CBD and BCP single dose pre-treatments, three hours after i.pl. carrageenan
[7] = Table 3A experiment, single agent 0.1 μM
[8] = Table 3A experiment, single agent 1 μM
[9] = Table 3A experiment, single agent 5 μM
[10] = Table 3A experiment, single agent 10 μM
[11] = Table 3B experiment, single agent 0.1 μM
[12] = Table 3B experiment, single agent 0.3 μM
[13] = Table 3B experiment, single agent 1.0 μM
[14] = Table 3B experiment, single agent 3.0 μM
[15] = Table 3B experiment, single agent 10 μM

C=C1CC/C=C(\C)CC[C@H]2[C@H]1CC2(C)C [BCP, (E)-beta-caryophyllene]
reduction of LPS-induced expression of IL-1α vs untreated, LPS-stimulated controls (FIG. 3A) [1]: did significantly reduce
anti-inflammatory actions when applied alone ([1]; IL-1α and IL-1β gene expression): only minor (if any) anti-inflammatory actions
% decrease in IL1α expression ([1]; single agent 0.1 μM): 2%
% decrease in IL1α expression ([1]; single agent 1 μM): 18%
% decrease in IL1α expression ([1]; single agent 5 μM): 26%
% decrease in IL1α expression ([1]; single agent 10 μM): 0%
% Inhibition Alone, IL-1α gene expression ([1]; single agent 0.001 μM): 0%
% Inhibition Alone, IL-1α gene expression ([1]; single agent 0.01 μM): 0%
% Inhibition Alone, IL-1α gene expression ([1]; single agent 0.1 μM): 1.8 ± 0.2%
% Inhibition Alone, IL-1α gene expression ([1]; single agent 0.3 μM): 5.8 ± 1.2%
% Inhibition Alone, IL-1α gene expression ([1]; single agent 1 μM): 0%
% Inhibition Alone, IL-1α gene expression ([1]; single agent 3 μM): 0%
% Inhibition Alone, IL-1α gene expression ([1]; single agent 10 μM): 8.2 ± 4.1%
% decrease in IL-1α gene expression [1, 4]: 32%
% decrease in IL-1α gene expression [1, 5]: 0%
carrageenan-induced paw edema ([2]; 30 mg/kg i.p., three hours after carrageenan, vehicle 60%, p<0.0001): 20%
carrageenan-induced increase of the paw volume [2, 6]: only mildly influenced
basal paw volume vs vehicle-treated mice [2]: none of the investigated single doses of CBD or BCP influenced the basal paw volume
% Inhibition BCP Alone (IL-1β gene expression) ([3]; 0.001 μM BCP alone): 0%
% Inhibition BCP Alone (IL-1β gene expression) ([3]; 0.01 μM BCP alone): 0%
% Inhibition BCP Alone (IL-1β gene expression) ([3]; 0.1 μM BCP alone): 1.8 ± 0.2%
% Inhibition BCP Alone (IL-1β gene expression) ([3]; 0.3 μM BCP alone): 5.8 ± 1.2%
% Inhibition BCP Alone (IL-1β gene expression) ([3]; 1 μM BCP alone): 0%
% Inhibition BCP Alone (IL-1β gene expression) ([3]; 3 μM BCP alone): 0%
% Inhibition BCP Alone (IL-1β gene expression) ([3]; 10 μM BCP alone): 8.2 ± 4.1%
% Inhibition BCP Alone (IL-1β gene expression) ([3]; 100 μM BCP alone, * indicates possibly cytotoxicity): *94.2 ± 11.3%
reduction of LPS-induced expression of IL-1β vs untreated, LPS-stimulated controls (FIG. 3B) [3]: did significantly reduce
% decrease in IL1β expression [3, 7]: 11%
% decrease in IL1β expression [3, 8]: 19%
% decrease in IL1β expression [3, 9]: 62%
% decrease in IL1β expression [3, 10]: 7%
% decrease in IL1β expression ([3]; Table 3B experiment, single agent 0.001 μM): 0%
% decrease in IL1β expression ([3]; Table 3B experiment, single agent 0.01 μM): 0%
% decrease in IL1β expression [3, 11]: 1.8 ± 0.2%
% decrease in IL1β expression [3, 12]: 5.8 ± 1.2%
% decrease in IL1β expression [3, 13]: 0%
% decrease in IL1β expression [3, 14]: 0%
% decrease in IL1β expression [3, 15]: 8.2 ± 4.1%
% decrease in IL1β expression ([3]; Table 3B experiment, single agent 100 μM): 94.2 ± 11.3%
% decrease in IL-1β gene expression [3, 4]: 34%
% decrease in IL-1β gene expression [3, 5]: 0%

C=C(C)[C@@H]1CCC(C)=C[C@H]1c1c(O)cc(CCCCC)cc1O [CBD, cannabidiol]
reduction of LPS-induced expression of IL-1α vs untreated, LPS-stimulated controls (FIG. 3A) [1]: did not significantly reduce
% decrease in IL1α expression ([1]; single agent 0.1 μM): 13%
% decrease in IL1α expression ([1]; single agent 1 μM): 4%
% decrease in IL1α expression ([1]; single agent 5 μM): 10%
% decrease in IL1α expression ([1]; single agent 10 μM): 21%
% Inhibition Alone, IL-1α gene expression ([1]; single agent 0.1 μM): 0%
% Inhibition Alone, IL-1α gene expression ([1]; single agent 0.3 μM): 3.2 ± 0.2%
% Inhibition Alone, IL-1α gene expression ([1]; single agent 1 μM): 34.5 ± 6.2%
% Inhibition Alone, IL-1α gene expression ([1]; single agent 3 μM): 55.5 ± 4.7% and 55.5 ± 47%
% decrease in IL-1α gene expression [1, 4]: 0%
% decrease in IL-1α gene expression [1, 5]: 42%
concentrations with marked anti-inflammatory effects ([1]; applied alone, IL-1α and IL-1β gene expression): ≥ 1 µM
carrageenan-induced increase of the paw volume ([2]; 0.5 mg/kg CBD alone, 3 hours after carrageenan): not influenced
carrageenan-induced increase of the paw volume ([2]; 1 mg/kg CBD alone, 3 hours after carrageenan): not influenced
carrageenan-induced increase of the paw volume [2, 6]: only mildly influenced
basal paw volume vs vehicle-treated mice [2]: none of the investigated single doses of CBD or BCP influenced the basal paw volume
% Inhibition CBD Alone (IL-1β gene expression) ([3]; 0.1 μM CBD alone): 5.8 ± 1.4%
% Inhibition CBD Alone (IL-1β gene expression) ([3]; 0.3 μM CBD alone): 9 ± 3.6%
% Inhibition CBD Alone (IL-1β gene expression) ([3]; 1 μM CBD alone): 39.2 ± 10.1%
% Inhibition CBD Alone (IL-1β gene expression) ([3]; 3 μM CBD alone): 85.6 ± 10%
% Inhibition CBD Alone (IL-1β gene expression) ([3]; 10 μM CBD alone): 92.2 ± 8.4%
reduction of LPS-induced expression of IL-1β vs untreated, LPS-stimulated controls (FIG. 3B) [3]: did not significantly reduce
% decrease in IL1β expression [3, 7]: 19%
% decrease in IL1β expression [3, 8]: 11%
% decrease in IL1β expression [3, 9]: 31%
% decrease in IL1β expression [3, 10]: 33%
% decrease in IL1β expression [3, 11]: 5.8 ± 1.4%
% decrease in IL1β expression [3, 12]: 9 ± 3.6%
% decrease in IL1β expression [3, 13]: 39.2 ± 10.1%
% decrease in IL1β expression [3, 14]: 85.6 ± 10%
% decrease in IL1β expression [3, 15]: 92.2 ± 8.4%
% decrease in IL-1β gene expression [3, 4]: 13%
% decrease in IL-1β gene expression [3, 5]: 55%
